According to patent publication US20240059671A1, “TYROSINE KINASE 2 (TYK2) DEGRADATION COMPOUNDS AND METHODS OF USE” (CULLGEN (SHANGHAI), INC., priority 2020, published 2024):

Molecular target: TYK2 (Homo sapiens, UniProt P29597)
Assay: TYK2 protein degradation in MOLT-4 cells by immunoblotting
Assay type: cell-based
Parameters: endogenous in cells; host or cells: MOLT-4
Details: MOLT-4 cells, 24 hours
Procedure, shortened: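 Percent TYK2 degradation came from densitometry of chemiluminescent immunoblots of RIPA lysates. Before lysis, MOLT-4 cells had been treated for 24 h with each compound at 0.5 or 5 μM.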

Chain of TYK2 (P29597 whole entry): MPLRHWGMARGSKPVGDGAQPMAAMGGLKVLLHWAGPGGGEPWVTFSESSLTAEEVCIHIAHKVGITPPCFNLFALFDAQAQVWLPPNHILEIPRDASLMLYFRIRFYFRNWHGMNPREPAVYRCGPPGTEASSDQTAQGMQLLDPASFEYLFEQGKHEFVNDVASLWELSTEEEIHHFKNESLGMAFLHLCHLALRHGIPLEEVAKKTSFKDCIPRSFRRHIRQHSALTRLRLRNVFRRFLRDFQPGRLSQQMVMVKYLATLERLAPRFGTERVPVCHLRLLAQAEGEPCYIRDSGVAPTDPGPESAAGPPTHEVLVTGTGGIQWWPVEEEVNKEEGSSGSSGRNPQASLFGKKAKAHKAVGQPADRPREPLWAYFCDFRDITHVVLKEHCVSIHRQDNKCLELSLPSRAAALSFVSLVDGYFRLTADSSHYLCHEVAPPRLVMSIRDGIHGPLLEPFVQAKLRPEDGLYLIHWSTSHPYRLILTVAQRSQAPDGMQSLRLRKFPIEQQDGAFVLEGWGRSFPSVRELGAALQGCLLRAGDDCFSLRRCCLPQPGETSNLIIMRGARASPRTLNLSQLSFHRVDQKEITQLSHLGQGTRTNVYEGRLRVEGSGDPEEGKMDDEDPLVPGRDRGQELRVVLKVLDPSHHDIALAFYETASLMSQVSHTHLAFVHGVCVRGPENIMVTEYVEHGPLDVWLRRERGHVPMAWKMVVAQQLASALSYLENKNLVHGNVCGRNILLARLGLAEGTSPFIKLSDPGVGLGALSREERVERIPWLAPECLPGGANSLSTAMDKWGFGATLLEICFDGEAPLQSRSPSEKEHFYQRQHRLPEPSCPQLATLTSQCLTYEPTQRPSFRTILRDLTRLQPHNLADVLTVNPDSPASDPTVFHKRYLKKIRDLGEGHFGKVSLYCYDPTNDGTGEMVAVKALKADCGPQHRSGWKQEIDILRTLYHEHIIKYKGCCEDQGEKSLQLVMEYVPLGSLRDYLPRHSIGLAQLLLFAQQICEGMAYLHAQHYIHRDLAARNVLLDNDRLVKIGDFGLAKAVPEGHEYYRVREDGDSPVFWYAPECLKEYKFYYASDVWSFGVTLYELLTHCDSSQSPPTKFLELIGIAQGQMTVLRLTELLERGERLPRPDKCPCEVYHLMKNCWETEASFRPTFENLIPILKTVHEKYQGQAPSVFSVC

TYK2 Degradation (MOLT-4, 0.5 μM) (0.5 μM)	TYK2 Degradation (0.5 μM) [%]	TYK2 Degradation (5 μM) [%]	Structure (SMILES)
C (C: ≤20% TYK2 degradation)	–	–	CNC(=O)c1nnc(NC(=O)CNC(=O)CCCNC(=O)C[C@H](NC(=O)[C@@H]2C[C@@H](O)CN2C(=O)[C@@H](NC(=O)C2(F)CC2)C(C)(C)C)c2ccc(-c3scnc3C)cc2)cc1Nc1cccc(-c2ncn(C)n2)c1OC [CPD-088, 6-(2-(4-((S)-3-((2S,4R)-1-((S)-2-(1-Fluorocyclopropane-1-carboxamido)-3,3-dimethylbutanoyl)-4-hydroxypyrrolidine-2-carboxamido)-3-(4-(4-methylthiazol-5-yl)phenyl)propanamido)butanamido)acetamido)-4-((2-methoxy-3-(1-methyl-1H-1,2,4-triazol-3-yl)phenyl)amino)-N-methylpyridazine-3-carboxamide]
–	≤20	≤20	CNC(=O)c1nnc(NC(=O)C2CC2)cc1Nc1cccc(-c2ncn(CCNC(=O)CCOCCC(=O)N[C@H](C(=O)N3C[C@H](O)C[C@H]3C(=O)NCc3ccc(-c4scnc4C)cc3)C(C)(C)C)n2)c1OC [CPD-067, 6-(Cyclopropanecarboxamido)-4-((3-(1-(2-(3-(3-(((S)-1-((2S,4R)-4-hydroxy-2-((4-(4-methylthiazol-5-yl)benzyl)carbamoyl)pyrrolidin-1-yl)-3,3-dimethyl-1-oxobutan-2-yl)amino)-3-oxopropoxy)propanamido)ethyl)-1H-1,2,4-triazol-3-yl)-2-methoxyphenyl)amino)-N-methylpyridazine-3-carboxamide]
–	≤20	≤20	CNC(=O)c1nnc(NC(=O)C2CC2)cc1Nc1cccc(-c2ncn(CCNC(=O)COCCOCCOCC(=O)N[C@H](C(=O)N3C[C@H](O)C[C@H]3C(=O)NCc3ccc(-c4scnc4C)cc3)C(C)(C)C)n2)c1OC [CPD-070, 6-(Cyclopropanecarboxamido)-4-((3-(1-((S)-16-((2S,4R)-4-hydroxy-2-((4-(4-methylthiazol-5-yl)benzyl)carbamoyl)pyrrolidine-1-carbonyl)-17,17-dimethyl-4,14-dioxo-6,9,12-trioxa-3,15-diazaoctadecyl)-1H-1,2,4-triazol-3-yl)-2-methoxyphenyl)amino)-N-methylpyridazine-3-carboxamide]

The next lines start with the compound.

Structure (SMILES)	TYK2 Degradation (MOLT-4, 0.5 μM) (0.5 μM)	TYK2 Degradation (0.5 μM) [%]	TYK2 Degradation (5 μM) [%]
CNC(=O)c1nnc(NC(=O)C2CC2)cc1Nc1cccc(-c2ncn(CCNC(=O)CCOCCOCCOCCOCCOCCNc3ccc4c(c3)C(=O)N(C3CCC(=O)NC3=O)C4=O)n2)c1OC (stereo not shown) [CPD-022, 6-(Cyclopropanecarboxamido)-4-((3-(1-(1-((2-(2,6-dioxopiperidin-3-yl)-1,3-dioxoisoindolin-5-yl)amino)-18-oxo-3,6,9,12,15-pentaoxa-19-azahenicosan-21-yl)-1H-1,2,4-triazol-3-yl)-2-methoxyphenyl)amino)-N-methylpyridazine-3-carboxamide]	–	40	≤20
CNC(=O)c1nnc(NC(=O)CNC(=O)CCOCCNc2ccc3c(c2)C(=O)N(C2CCC(=O)NC2=O)C3=O)cc1Nc1cccc(-c2ncn(C)n2)c1OC (stereo not shown) [CPD-061, 6-(2-(3-(2-((2-(2,6-Dioxopiperidin-3-yl)-1,3-dioxoisoindolin-5-yl)amino)ethoxy)propanamido)acetamido)-4-((2-methoxy-3-(1-methyl-1H-1,2,4-triazol-3-yl)phenyl)amino)-N-methylpyridazine-3-carboxamide]	–	≤20	≤20
CNC(=O)c1nnc(NC(=O)C2CC2)cc1Nc1cccc(-c2ncn(CCNC(=O)CCCCNc3cccc4c3C(=O)N(C3CCC(=O)NC3=O)C4=O)n2)c1OC (stereo not shown) [CPD-004, 6-(Cyclopropanecarboxamido)-4-((3-(1-(2-(5-((2-(2,6-dioxopiperidin-3-yl)-1,3-dioxoisoindolin-4-yl)amino)pentanamido)ethyl)-1H-1,2,4-triazol-3-yl)-2-methoxyphenyl)amino)-N-methylpyridazine-3-carboxamide]	–	≤20	–
